# Reference: patent US20170096708A1, “DIAGNOSTIC METHOD” (Convergence Pharmaceuticals Limited, priority 2014, published 2017)
# Counter-ions that a name gives are not always drawn.
# System: trigeminal neuralgia (TGN) patients
# Experiment: 7 week randomized withdrawal trial with trigeminal neuralgia (TGN) patients
# Format: in vivo, human
# Text: CNV1014802 is a novel Nav1.7 selective state-dependent sodium channel blocker that is being assessed in the treatment of trigeminal neuralgia. The trial used a randomized withdrawal design to assess efficacy in this rare condition and comprised a 21-day open-label phase followed by a randomized 28-day placebo-controlled phase for responders as described in Zakrzewska et al., (2013) Trials 14:402). Patients participated in an initial open-label treatment period of 21 days of CNV1014802 using 150 mg three times daily. Responders were then randomized to 28 days of CNV1014802 150 mg three times daily or placebo. A responder at the end of the open-label period was defined as a patient with one of the following: • 1) a 30% or more decrease in the total number of paroxysms over the last 7 days of the open-label phase as compared to the total number recorded in the 7-day baseline phase (day-7 to -1 prior to start of study medication, Run in); and/or • 2) a 30% reduction in the mean severity of pain experienced during the paroxysm over the last 7 days of the open-label phase as compared to the total number recorded in the 7-day baseline phase (day-7 to -1 prior to start of study medication, run in); and/or • 3) a Patient Global Improvement of Change rating of much improved/very much improved. Responders were randomized to CNV1014802 or placebo, in a 1:1 ratio. During the double-blind randomized phase, patients were evaluated at each clinic visit, which occurred every 7 days to determine whether they met the failure criteria in the double-blind treatment period. […]
compound,measurement,setting,value
"NC(=O)[C@@H]1CC[C@H](c2ccc(OCc3ccccc3F)cc2)N1 [CNV1014802, (5R)-5-(4-{[(2-fluorophenyl)methyl]oxy}phenyl)-L-prolinamide hydrochloride salt]",reduction in pain severity,"150 mg three times daily, final week of double-blind (week 7) vs 7 day run-in, LOCF, compared to placebo group, p=0.04, FIG. 1",superior
same,reduction in the number of paroxysms,"150 mg three times daily, final week of double-blind (week 7) vs 7 day run-in, LOCF, compared to placebo group, p=0.08, FIG. 1",superior
same,response to treatment in patients with genetic variations within the CACNA1A gene and/or the CACNA1B gene,"all patients with genetic variations, responder criteria of the 21-day open-label phase",responded to treatment
